Laboratory results reported in US10543212B2, “Substituted amines for treating cardiac diseases” (Cardurion Pharmaceuticals, LLC, priority 2017, dated 2020).

Biological target: T1, Full-length, GST-tagged, human CaMKIIδ (Homo sapiens, UniProt Q13557)
T1 construct: Full-Length, Glutathione-S-Transferase(GST)-Tagged, Human CaMKIIδ was purchased from Carna Biosciences; purchased Carna Biosciences 02-111
Assay: CaMKIIδ binding assay (TR-FRET with BODIPY-labeled probe ligand)
Settings: CaMKIIδ binding assay, results of Table 2
Procedure, shortened: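 Compounds were tested as 4-fold, eight-point series for 1 hr at room temperature, and IC50 was obtained by logistic fitting against a 3 μM parent-compound control. Signal came from displacement of a 300 nM BODIPY ligand from 0.5 nM GST-CaMKIIδ, detected via Tb-anti-GST in calmodulin/Ca2+ (pH 7.6).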

T1 sequence (Q13557 1-478 isoform Q13557-12): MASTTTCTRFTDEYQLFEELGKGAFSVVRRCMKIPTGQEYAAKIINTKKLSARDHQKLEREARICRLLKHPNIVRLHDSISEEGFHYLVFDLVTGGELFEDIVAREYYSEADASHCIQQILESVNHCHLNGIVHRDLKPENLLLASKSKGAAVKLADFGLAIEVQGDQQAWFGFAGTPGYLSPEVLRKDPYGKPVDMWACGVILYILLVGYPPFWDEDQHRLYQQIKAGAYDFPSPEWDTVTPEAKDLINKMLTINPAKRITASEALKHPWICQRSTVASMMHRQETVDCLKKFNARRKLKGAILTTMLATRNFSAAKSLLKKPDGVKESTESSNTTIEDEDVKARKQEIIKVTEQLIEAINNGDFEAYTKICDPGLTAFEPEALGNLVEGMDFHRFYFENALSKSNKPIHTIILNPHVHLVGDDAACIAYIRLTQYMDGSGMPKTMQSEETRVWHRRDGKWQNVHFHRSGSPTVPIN

| Compound | IC50 |
| --- | --- |
| C[C@@H](Cn1cnnn1)Oc1cc(-c2cnc(Nc3cn(C4CCN(Cc5nccs5)CC4)nc3C(F)(F)F)nc2)ccc1Cl [Example 551, (S)-5-(3-((1-(1H-tetrazol-1-yl)propan-2-yl)oxy)-4-chlorophenyl)-N-(1-(1-(thiazol-2-ylmethyl)piperidin-4-yl)-3-(trifluoromethyl)-1H-pyrazol-4-yl)pyrimidin-2-amine] | 10 to 100 nM |
| COc1cc2c(cc1Nc1ncc(-c3ccc(Cl)c(O[C@@H](C)Cn4cnnn4)c3)cn1)C(=O)N(CC1COC1)C2 [Example 445, (S)-6-((5-(3-((1-(1H-tetrazol-1-yl)propan-2-yl)oxy)-4-chlorophenyl)pyrimidin-2-yl)amino)-5-methoxy-2-(oxetan-3-ylmethyl)isoindolin-1-one] | 10 to 100 nM |
| COc1cc2c(cc1Nc1ncc(-c3ccc(Cl)c(O[C@@H](C)Cn4cnnn4)c3)cn1)N(C(=O)CN1CCOCC1)CC2 [Example 498, (S)-1-(6-((5-(3-((1-(1H-tetrazol-1-yl)propan-2-yl)oxy)-4-chlorophenyl)pyrimidin-2-yl)amino)-5-methoxyindolin-1-yl)-2-morpholinoethan-1-one] | ≥ 100 nM |
| COc1cc(C)c(C(=O)N2CCOCC2)cc1Nc1ncc(-c2ccc(Cl)c(O[C@@H](C)Cn3cnnn3)c2)cn1 [Example 439, (S)-(5-((5-(3-((1-(1H-tetrazol-1-yl)propan-2-yl)oxy)-4-chlorophenyl)pyrimidin-2-yl)amino)-4-methoxy-2-methylphenyl)(morpholino)methanone] | < 10 nM |

Same assay, conditions: CaMKIIδ binding assay; activity class per Table 2

| Compound | IC50 |
| --- | --- |
| C[C@@H](Cn1cnnn1)Oc1cc(-c2cnc(Nc3cn(C4CC5(C4)CN(C4CCOCC4)C5)nc3OCC(F)(F)F)nc2)ccc1C#N [Example 938, (S)-2-((1-(1H-tetrazol-1-yl)propan-2-yl)oxy)-4-(2-((1-(2-(tetrahydro-2H-pyran-4-yl)-2-azaspiro[3.3]heptan-6-yl)-3-(2,2,2-trifluoroethoxy)-1H-pyrazol-4-yl)amino)pyrimidin-5-yl)benzonitrile] | < 10 nM |

Same assay, conditions: Table 2; CaMKIIδ binding assay, activity given as class A/B/C

| Compound | IC50 |
| --- | --- |
| C[C@@H](Cn1cnnn1)Oc1cc(-c2cnc(Nc3cn(CC4(O)CCC4)nc3C(F)(F)F)nc2)ccc1F [Example 858, (S)-1-((4-((5-(3-((1-(1H-tetrazol-1-yl)propan-2-yl)oxy)-4-fluorophenyl)pyrimidin-2-yl)amino)-3-(trifluoromethyl)-1H-pyrazol-1-yl)methyl)cyclobutan-1-ol] | 10 to 100 nM |
| COC[C@@H](C)n1cc(Nc2ncc(-c3ccc(Cl)c(O[C@@H](C)Cn4cnnn4)c3)cn2)c(OCC(F)(F)F)n1 [Example 796, 5-(3-(((S)-1-(1H-tetrazol-1-yl)propan-2-yl)oxy)-4-chlorophenyl)-N-(1-((R)-1-methoxypropan-2-yl)-3-(2,2,2-trifluoroethoxy)-1H-pyrazol-4-yl)pyrimidin-2-amine] | < 10 nM |
| C[C@@H](Cn1cnnn1)Oc1cc(-c2cnc(Nc3ccnn3-c3ccccc3)nc2)ccc1Cl [Example 754, (S)-5-(3-((1-(1H-tetrazol-1-yl)propan-2-yl)oxy)-4-chlorophenyl)-N-(1-phenyl-1H-pyrazol-5-yl)pyrimidin-2-amine] | 10 to 100 nM |
| C[C@@H](Cn1cnnn1)Oc1cc(-c2cnc(Nc3cn([C@H]4CC[C@H](N5CCOCC5)CC4)nc3OCC(F)(F)F)nc2)ccc1F [Example 813, 5-(3-(((S)-1-(1H-tetrazol-1-yl)propan-2-yl)oxy)-4-fluorophenyl)-N-(1-(trans-4-morpholinocyclohexyl)-3-(2,2,2-trifluoroethoxy)-1H-pyrazol-4-yl)pyrimidin-2-amine] | < 10 nM |
| COc1cccc(-n2cc(Nc3ncc(-c4ccc(Cl)c(O[C@@H](C)Cn5cnnn5)c4)cn3)c(OCC(F)(F)F)n2)n1 [Example 878, (S)-5-(3-((1-(1H-tetrazol-1-yl)propan-2-yl)oxy)-4-chlorophenyl)-N-(1-(6-methoxypyridin-2-yl)-3-(2,2,2-trifluoroethoxy)-1H-pyrazol-4-yl)pyrimidin-2-amine] | ≥ 100 nM |
| COCCn1cc(Nc2ncc(-c3ccc(Cl)c(O[C@@H](C)Cn4cnnn4)c3)cn2)c(C(F)(F)F)n1 [Example 737, (S)-5-(3-((1-(1H-tetrazol-1-yl)propan-2-yl)oxy)-4-chlorophenyl)-N-(1-(2-methoxyethyl)-3-(trifluoromethyl)-1H-pyrazol-4-yl)pyrimidin-2-amine] | 10 to 100 nM |
| C[C@@H](Cn1cccn1)Oc1cc(-c2cnc(Nc3cn([C@H]4CC[C@H](N5CCOCC5)CC4)nc3C(F)(F)F)nc2)ccc1C#N [Example 786, 2-(((S)-1-(1H-pyrazol-1-yl)propan-2-yl)oxy)-4-(2-((1-(trans-4-morpholinocyclohexyl)-3-(trifluoromethyl)-1H-pyrazol-4-yl)amino)pyrimidin-5-yl)benzonitrile] | 10 to 100 nM |
| C[C@@H](Cn1cnnn1)Oc1cc(-c2cnc(Nc3cn(CC(C)(C)N)nc3C(F)(F)F)nc2)ccc1Cl [Example 861, (S)-5-(3-((1-(1H-tetrazol-1-yl)propan-2-yl)oxy)-4-chlorophenyl)-N-(1-(2-amino-2-methylpropyl)-3-(trifluoromethyl)-1H-pyrazol-4-yl)pyrimidin-2-amine] | < 10 nM |

Same assay, conditions: Table 2; activity class for CaMKIIδ

| Compound | IC50 |
| --- | --- |
| C[C@@H](Cn1cnnn1)Oc1cc(-c2cnc(Nc3cn(C4CCSCC4)nc3C(F)(F)F)nc2)ccc1Cl [Example 663, (S)-5-(3-((1-(1H-tetrazol-1-yl)propan-2-yl)oxy)-4-chlorophenyl)-N-(1-(tetrahydro-2H-thiopyran-4-yl)-3-(trifluoromethyl)-1H-pyrazol-4-yl)pyrimidin-2-amine] | 10 to 100 nM |
| C[C@@H](Cn1cnnn1)Oc1cc(-c2cnc(Nc3cn(CC4CCCN4)nc3C(F)(F)F)nc2)ccc1Cl (stereo partly drawn) [Example 602, 5-(3-(((S)-1-(1H-tetrazol-1-yl)propan-2-yl)oxy)-4-chlorophenyl)-N-(1-(pyrrolidin-2-ylmethyl)-3-(trifluoromethyl)-1H-pyrazol-4-yl)pyrimidin-2-amine] | < 10 nM |
| COc1nc(N2CCCN(C(=O)OC(C)(C)C)CC2)ccc1Nc1ncc(-c2ccc(Cl)c(O[C@@H](C)Cn3cnnn3)c2)cn1 [Example 665, tert-butyl (S)-4-(5-((5-(3-((1-(1H-tetrazol-1-yl)propan-2-yl)oxy)-4-chlorophenyl)pyrimidin-2-yl)amino)-6-methoxypyridin-2-yl)-1,4-diazepane-1-carboxylate] | ≥ 100 nM |
| COc1cc(N2CCN(C3CCOCC3)CC2)cnc1Nc1ncc(-c2ccc(Cl)c(O[C@@H](C)Cn3cnnn3)c2)cn1 [Example 647, (S)-5-(3-((1-(1H-tetrazol-1-yl)propan-2-yl)oxy)-4-chlorophenyl)-N-(3-methoxy-5-(4-(tetrahydro-2H-pyran-4-yl)piperazin-1-yl)pyridin-2-yl)pyrimidin-2-amine] | 10 to 100 nM |
| Cc1c(Nc2ncc(-c3ccc(Cl)c(O[C@@H](C)Cn4cnnn4)c3)cn2)cnn1C [Example 731, (S)-5-(3-((1-(1H-tetrazol-1-yl)propan-2-yl)oxy)-4-chlorophenyl)-N-(1,5-dimethyl-1H-pyrazol-4-yl)pyrimidin-2-amine] | 10 to 100 nM |
| C[C@@H](Cn1cnnn1)Oc1cc(-c2cnc(Nc3cn(C4CCC(O)CC4)nc3C(F)(F)F)nc2)ccc1Cl (stereo partly drawn) [Example 670, (S)-4-(4-((5-(3-((1-(1H-tetrazol-1-yl)propan-2-yl)oxy)-4-chlorophenyl)pyrimidin-2-yl)amino)-3-(trifluoromethyl)-1H-pyrazol-1-yl)cyclohexan-1-ol] | 10 to 100 nM |
